Measurements taken from patent US12077503B2, “Substituted cyclic amides and their use as herbicides” (FMC CORPORATION, priority 2015, dated 2024).

melting point	Structure (SMILES)
104 to 107 °C	CN1C[C@H](c2ccc(C(F)(F)F)cc2)[C@@H](C(=O)Nc2ccccc2Br)C1=O [Compound 943]
66 to 70 °C	CSc1ccccc1NC(=O)[C@H]1C(=O)NC[C@@H]1c1ccc(C(F)(F)F)cn1 [Compound 1050]
120 to 124 °C	CN1C[C@H](c2ccc(C(F)(F)F)cn2)[C@@H](C(=O)Nc2cccc(F)c2F)C1=O [Compound 1052]
